Measurements: US20140288052A1, “SUBSTITUTED BICYCLIC AZA-HETEROCYCLES AND ANALOGUES AS SIRTUIN MODULATORS” (GlaxoSmithKline, LLC, priority 2011, published 2014)

How the values were obtained:
SIRT1 [1] = biological target: T1, SIRT1 (Homo sapiens, UniProt Q96EB6); experiment: Trp mass spectrometry assay of SIRT1 deacetylase activation; assay type: biochemical; details: Trp peptide substrate; for TRP EC1.5 (μM): concentration that results in 150% activation of SIRT1; for TRP % Fold Act: percent maximum fold activation relative to control (100%)
T1 sequence (Q96EB6 1-747): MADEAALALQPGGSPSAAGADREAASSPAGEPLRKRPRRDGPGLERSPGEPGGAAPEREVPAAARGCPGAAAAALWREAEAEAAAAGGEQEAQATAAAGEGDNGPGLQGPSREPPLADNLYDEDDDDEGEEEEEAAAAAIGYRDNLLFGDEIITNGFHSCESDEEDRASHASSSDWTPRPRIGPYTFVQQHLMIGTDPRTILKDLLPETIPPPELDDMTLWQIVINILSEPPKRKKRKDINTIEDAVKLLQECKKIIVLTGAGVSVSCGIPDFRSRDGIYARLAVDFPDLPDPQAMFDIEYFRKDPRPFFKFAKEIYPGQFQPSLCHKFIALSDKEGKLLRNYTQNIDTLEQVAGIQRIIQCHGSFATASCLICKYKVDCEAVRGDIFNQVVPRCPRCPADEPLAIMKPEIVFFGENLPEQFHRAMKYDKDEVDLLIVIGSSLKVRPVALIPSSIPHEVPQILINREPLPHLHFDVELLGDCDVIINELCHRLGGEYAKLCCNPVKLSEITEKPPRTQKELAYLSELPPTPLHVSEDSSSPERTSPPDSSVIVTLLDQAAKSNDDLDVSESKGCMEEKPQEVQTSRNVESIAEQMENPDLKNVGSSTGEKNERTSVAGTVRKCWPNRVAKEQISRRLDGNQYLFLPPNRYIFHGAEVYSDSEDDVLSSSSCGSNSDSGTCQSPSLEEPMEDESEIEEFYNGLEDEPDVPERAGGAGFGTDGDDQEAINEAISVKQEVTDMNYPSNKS
Procedure, shortened: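 His-tagged human SIRT1 (E. coli-expressed, 10 nM) was incubated with 0.5 μM Ac-RHKK(Ac)W-NH2 peptide and 120 μM βNAD+ for 25 min at 25 °C in HEPES pH 7.5, 1500 mM NaCl, with varying compound; formic acid quench. OAADPR or deacetylated peptide was quantified by mass spectrometry against DMSO control. EC1.5 (150% activation) and percent maximum activation were derived.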

SIRT1 [2] = biological target: T1, SIRT1; experiment: TAMRA based mass spectrometry assay of SIRT1 deacetylase activation; assay type: biochemical; details: TAMRA peptide substrate; for TAMRA EC1.5 (μM): concentration that results in 150% activation of SIRT1; for TAMRA % Fold Act: percent maximum fold activation relative to control (100%)
Procedure, shortened: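 E. coli-expressed N-terminal His-tagged human SIRT1 (10 nM) was incubated 25 min at 25 °C, pH 8 Tris-acetate buffer, with 0.5 μM TAMRA-labelled p53-derived acetyl-peptide, 120 μM NAD+ and varying compound; formic acid stop, mass-spec quantitation of deacetylated product vs DMSO controls. EC1.5 = concentration giving 150% activation.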

Row | TRP EC1.5 (μM) (SIRT1 [1]) | TRP % Fold Act (SIRT1 [1]) | TAMRA EC1.5 (μM) (SIRT1 [2]) | TAMRA % Fold Act (SIRT1 [2]) | SMILES
1 | C (EC1.5>25 μM) | B (Fold Activation<350%) | C (EC1.5>25 μM) | B (Fold Activation<350%) | O=C(Nc1ccnc2cc(-c3cccc(C(F)(F)F)c3)nn12)c1cscn1 [Compound 66]
2 | C (EC1.5>25 μM) | B (Fold Activation<350%) | C (EC1.5>25 μM) | B (Fold Activation<350%) | O=C(Nc1ccnc2cc(-c3cccc(C(F)(F)F)c3)nn12)c1ccccn1 [Compound 70]
3 | C (EC1.5>25 μM) | B (Fold Activation<350%) | B (EC1.5 1−25 μM) | B (Fold Activation<350%) | O=C(Nc1ccnc2cc(-c3cccc(C(F)(F)F)c3)nn12)c1ncccn1 [Compound 71]
4 | B (EC1.5 1−25 μM) | B (Fold Activation<350%) | B (EC1.5 1−25 μM) | B (Fold Activation<350%) | O=C(Nc1ccnc2cc(-c3cccc(C(F)(F)F)c3)nn12)c1cccc(OCC(O)CO)n1 (stereo not drawn) [Compound 74]
5 | B (EC1.5 1−25 μM) | B (Fold Activation<350%) | B (EC1.5 1−25 μM) | A (Fold activation≧350%) | O=C(Nc1ccccn1)c1ccnc2cc(-c3ccccc3C(F)(F)F)nn12 [Compound 75]
6 | B (EC1.5 1−25 μM) | B (Fold Activation<350%) | B (EC1.5 1−25 μM) | A (Fold activation≧350%) | O=C(Nc1cccnc1)c1ccnc2cc(-c3ccccc3C(F)(F)F)nn12 [Compound 76]
7 | B (EC1.5 1−25 μM) | B (Fold Activation<350%) | B (EC1.5 1−25 μM) | A (Fold activation≧350%) | O=C(Nc1ccncc1)c1ccnc2cc(-c3ccccc3C(F)(F)F)nn12 [Compound 77]
8 | B (EC1.5 1−25 μM) | B (Fold Activation<350%) | A (EC1.5<1 μM) | A (Fold activation≧350%) | O=C(Nc1ccncn1)c1ccnc2cc(-c3ccccc3C(F)(F)F)nn12 [Compound 78]
9 | A (EC1.5<1 μM) | B (Fold Activation<350%) | B (EC1.5 1−25 μM) | B (Fold Activation<350%) | O=C(Nc1nccs1)c1ccnc2cc(-c3ccccc3C(F)(F)F)nn12 [Compound 79]
10 | C (EC1.5>25 μM) | B (Fold Activation<350%) | B (EC1.5 1−25 μM) | B (Fold Activation<350%) | Cc1cnc(NC(=O)c2ccnc3cc(-c4ccccc4C(F)(F)F)nn23)s1 [Compound 80]
11 | B (EC1.5 1−25 μM) | B (Fold Activation<350%) | B (EC1.5 1−25 μM) | B (Fold Activation<350%) | Cc1csc(NC(=O)c2ccnc3cc(-c4ccccc4C(F)(F)F)nn23)n1 [Compound 81]
12 | C (EC1.5>25 μM) | B (Fold Activation<350%) | A (EC1.5<1 μM) | A (Fold activation≧350%) | O=C(Nc1cccc(N2CCOCC2)n1)c1ccnc2cc(-c3ccccc3C(F)(F)F)nn12 [Compound 82]
13 | B (EC1.5 1−25 μM) | B (Fold Activation<350%) | A (EC1.5<1 μM) | A (Fold activation≧350%) | O=C(Nc1cccc(CN2CCOCC2)n1)c1ccnc2cc(-c3ccccc3C(F)(F)F)nn12 [Compound 83]
14 | C (EC1.5>25 μM) | B (Fold Activation<350%) | C (EC1.5>25 μM) | B (Fold Activation<350%) | O=C(Nc1cccnc1)c1ccnc2cc(-c3cccc(C(F)(F)F)c3)nn12 [Compound 85]
15 | C (EC1.5>25 μM) | B (Fold Activation<350%) | C (EC1.5>25 μM) | B (Fold Activation<350%) | O=C(Nc1ccncc1)c1ccnc2cc(-c3cccc(C(F)(F)F)c3)nn12 [Compound 86]
16 | C (EC1.5>25 μM) | B (Fold Activation<350%) | C (EC1.5>25 μM) | B (Fold Activation<350%) | O=C(Nc1nccs1)c1ccnc2cc(-c3cccc(C(F)(F)F)c3)nn12 [Compound 87]
17 | C (EC1.5>25 μM) | B (Fold Activation<350%) | B (EC1.5 1−25 μM) | B (Fold Activation<350%) | Cc1cnc(NC(=O)c2ccnc3cc(-c4cccc(C(F)(F)F)c4)nn23)s1 [Compound 88]
18 | C (EC1.5>25 μM) | B (Fold Activation<350%) | C (EC1.5>25 μM) | B (Fold Activation<350%) | Cc1csc(NC(=O)c2ccnc3cc(-c4cccc(C(F)(F)F)c4)nn23)n1 [Compound 89]
19 | C (EC1.5>25 μM) | B (Fold Activation<350%) | C (EC1.5>25 μM) | B (Fold Activation<350%) | O=C(Nc1cccc(N2CCOCC2)n1)c1ccnc2cc(-c3cccc(C(F)(F)F)c3)nn12 [Compound 90]
20 | C (EC1.5>25 μM) | B (Fold Activation<350%) | C (EC1.5>25 μM) | B (Fold Activation<350%) | O=C(Nc1cccc(CN2CCOCC2)n1)c1ccnc2cc(-c3cccc(C(F)(F)F)c3)nn12 [Compound 91]
21 | C (EC1.5>25 μM) | B (Fold Activation<350%) | C (EC1.5>25 μM) | B (Fold Activation<350%) | O=C(Nc1ccncn1)c1ccnc2cc(-c3cccc(C(F)(F)F)c3)nn12 [Compound 92]
22 | C (EC1.5>25 μM) | B (Fold Activation<350%) | B (EC1.5 1−25 μM) | B (Fold Activation<350%) | O=C(Nc1ccnc2cc(-c3ccccc3C(F)(F)F)nn12)c1nccs1 [Compound 93]
23 | C (EC1.5>25 μM) | B (Fold Activation<350%) | A (EC1.5<1 μM) | A (Fold activation≧350%) | Cn1cnc(C(=O)Nc2ccnc3cc(-c4ccccc4C(F)(F)F)nn23)c1 [Compound 94]
24 | C (EC1.5>25 μM) | B (Fold Activation<350%) | C (EC1.5>25 μM) | B (Fold Activation<350%) | O=C(Nc1ccnc2cc(-c3cccc(C(F)(F)F)c3)nn12)c1nccs1 [Compound 95]
25 | C (EC1.5>25 μM) | B (Fold Activation<350%) | B (EC1.5 1−25 μM) | B (Fold Activation<350%) | Cn1cnc(C(=O)Nc2ccnc3cc(-c4cccc(C(F)(F)F)c4)nn23)c1 [Compound 96]
26 | C (EC1.5>25 μM) | B (Fold Activation<350%) | C (EC1.5>25 μM) | B (Fold Activation<350%) | O=C(Nc1ccnc2cc(-c3cccc(C(F)(F)F)c3)nn12)c1ccncn1 [Compound 97]
27 | C (EC1.5>25 μM) | B (Fold Activation<350%) | C (EC1.5>25 μM) | B (Fold Activation<350%) | O=C(Nc1ccnc2cc(-c3cccc(C(F)(F)F)c3)nn12)c1cccc(N2CCC2)n1 [Compound 98]
28 | C (EC1.5>25 μM) | B (Fold Activation<350%) | C (EC1.5>25 μM) | B (Fold Activation<350%) | O=C(Nc1cnccn1)c1ccnc2cc(-c3ccccc3C(F)(F)F)nn12 [Compound 99]
29 | B (EC1.5 1−25 μM) | B (Fold Activation<350%) | B (EC1.5 1−25 μM) | A (Fold activation≧350%) | O=C(Nc1ncccn1)c1ccnc2cc(-c3ccccc3C(F)(F)F)nn12 [Compound 100]
30 | B (EC1.5 1−25 μM) | B (Fold Activation<350%) | C (EC1.5>25 μM) | B (Fold Activation<350%) | O=C(Nc1ncccn1)c1ccnc2cc(-c3cccc(C(F)(F)F)c3)nn12 [Compound 101]
